IC50 data for 18 molecules are collected here from US9000182B2, “2H-imidazol-4-amine compounds and their use as BACE inhibitors” (AstraZeneca AB, priority 2012, dated 2015).

For experiment [1], the target named is T1, human β-Secretase (sBACE-Fc, soluble part AA 1-AA 460) (Homo sapiens (Human), UniProt P56817). The experiment is described as follows: TR-FRET assay. It counts as biochemical. The settings on record: standard TR-FRET assay (values without footnote a). Here is the method: The β-secretase enzyme used in the TR-FRET is prepared as follows:
(§1) The enzyme (truncated form) was diluted to 6 μg/mL (stock 1.3 mg/mL) and the TruPoint BACE1 Substrate to 200 nM (stock 120 μM) in reaction buffer (NaAcetate, chaps, triton x-100, EDTA pH4.5). Enzyme and compound in dimethylsulphoxide (final DMSO concentration 5%) was mixed and pre-incubated for 10 minutes at RT. Substrate was then added and the reaction was incubated for 15 minutes at RT. The reaction was stopped with the addition of 0.35 vol Stop solution (NaAcetate, pH 9). The fluorescence of the product was measured on a Victor II plate reader with excitation wavelengths of 340-485 nm and emission wavelengths of 590-615 nm. […] The dimethylsulphoxide control, instead of test compound, defined the 100% activity level and 0% activity was defined by wells lacking enzyme (replaced with reaction buffer) or by a saturating dose of a known inhibitor, 2-amino-6-[3-(3-methoxyphenyl)phenyl]-3,6-dimethyl-5H-pyrimidin-4-one.

Experiment [2] concerns sAPPβ release in SH-SY5Y cells. The experiment is described as follows: sAPPβ release assay. The class given is cell-based. As to conditions: 17 h incubation. How it is done:
SH-SY5Y cells were cultured in DMEM/F-12 with Glutamax, 10% FCS and 1% non-essential amino acids and cryopreserved and stored at −140° C. at a concentration of 7.5-9.5×10^6 cells per vial. Thaw cells and seed at a conc. of around 10000 cells/well in DMEM/F-12 with Glutamax, 10% FCS and 1% non-essential amino acids to a 384-well tissue culture treated plate, […] cell susp/well. The cell plates were then incubated for 7-24 h at 37° C., 5% CO2. The cell medium was removed, followed by addition of 30 μL compound diluted in DMEM/F-12 with Glutamax, 10% FCS, 1% non-essential amino acids and 1% PeSt to a final conc. of 1% DMSO. The compounds were incubated with the cells for 17 h (overnight) at 37° C., 5% CO2. Meso Scale Discovery (MSD) plates were used for the detection of sAPPβ release. MSD sAPPβ plates were blocked in 1% BSA in Tris wash buffer (40 μL/well) for 1 h on shake at r.t. and washed 1 time in Tris wash buffer (40 μL/well). 20 μL of medium was transferred to the pre-blocked and washed MSD sAPPβ microplates, and the cell plates were further used in an ATP assay to measure cytotoxicity. The MSD plates were incubated with shaking at r.t. for 2 h and the media discarded. 10 μL detection antibody was added (1 nM) per well followed by incubation with shaking at r.t. for 2 h and then discarded. 40 μL Read Buffer was added per well and the plates were read in a SECTOR Imager.

Experiment [3] addresses T1, human β-Secretase (sBACE-Fc, soluble part AA 1-AA 460). The experiment is described as follows: Diluted TR-FRET assay. It counts as biochemical. How it is done: as §1, with “The enzyme (truncated form) was diluted to 6 μg/mL (stock 1.3 mg/mL) and the TruPoint BACE1 Substrate to 200 nM (stock 120 μM) in reaction buffer (NaAcetate, chaps, triton x-100, EDTA pH4.5).” left out, “Substrate was then added and the reaction was incubated for 15 minutes at RT.” left out
(In general: TR-FRET usually uses a lanthanide donor and a delayed reading to cut background.)

Setting [4] is: IC50 from the diluted FRET assay (footnote a): 50 times less enzyme, 6.5 h reaction time.

T1 sequence (P56817 22-460): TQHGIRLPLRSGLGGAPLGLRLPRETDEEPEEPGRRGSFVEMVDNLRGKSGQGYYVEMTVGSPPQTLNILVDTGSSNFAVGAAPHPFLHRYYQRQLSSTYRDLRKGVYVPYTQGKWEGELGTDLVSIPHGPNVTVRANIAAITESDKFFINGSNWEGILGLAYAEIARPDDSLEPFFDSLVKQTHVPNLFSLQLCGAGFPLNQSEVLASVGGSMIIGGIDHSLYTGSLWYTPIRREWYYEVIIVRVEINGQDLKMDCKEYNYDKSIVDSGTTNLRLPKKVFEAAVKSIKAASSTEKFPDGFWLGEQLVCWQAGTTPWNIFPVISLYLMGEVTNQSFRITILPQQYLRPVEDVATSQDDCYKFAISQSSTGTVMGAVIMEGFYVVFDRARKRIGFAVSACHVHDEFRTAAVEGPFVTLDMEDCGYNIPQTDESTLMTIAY

The term IC50 denotes the concentration needed to halve the response being measured. Low readings indicate greater potency in that assay, high ones weaker potency in that assay. Molecule `CO[C@H]1CC[C@]2(CC1)Cc1ccc(O)cc1[C@@]21N=C(C)C(N)=N1` [Example 19, (1r,1′R,4R)-4″-Amino-4-methoxy-5″-methyl-3′H-dispiro[cyclohexane-1,2′-indene-1′,2″-imidazol]-6′-ol] registered a 50% inhibitory concentration (IC50) in experiment [1] of 1300 nM.
As for `CC1=N[C@@]2(N=C1N)c1cc(-c3cc(Cl)cc(C#N)c3)ccc1C[C@]21CC[C@@H](O)CC1` (single isomer, unassigned; isomer 2) [15, isomer 2], the figures for the IC50 in experiment [1] and in experiment [2] were 780 nM and 216 nM, respectively.
For `CC1=N[C@@]2(N=C1N)c1cc(Br)ccc1C[C@]21CC[C@@H](O)CC1` (single isomer, unassigned; isomer 1) [5, isomer 1] the same measures were 270 nM and 96 nM.
On to `CO[C@H]1CC[C@]2(CC1)Cc1ccc(C#CC(C)C)cc1[C@]21N=C(C)C(N)=N1` (single isomer, unassigned; isomer 1) [9, isomer 1], for which, in experiment [2], the midpoint of inhibition, the IC50, lay at 0.7 nM.
As to `CO[C@H]1CC[C@]2(CC1)Cc1ccc(C#CC3CCC3)cc1C21N=C(C)C(N)=N1` (mixture of isomers) [Example 6, (1r,4r)-6′-(Cyclobutylethynyl)-4-methoxy-5″-methyl-3′H-dispiro[cyclohexane-1,2′-indene-1′,2″-imidazol]-4″-amine], the IC50 in experiment [2] (Homo sapiens) is 2.1 nM.
In experiment [2], `CO[C@H]1CC[C@]2(CC1)Cc1ccc(OCCC(F)(F)F)cc1[C@@]21N=C(C)C(N)=N1` (single isomer, unassigned; isomer 1) [11, isomer 1] displayed an IC50 of 0.7 nM.
As to `CO[C@H]1CC[C@]2(CC1)Cc1ccc(OCC(C)F)cc1C21N=C(C)C(N)=N1` (stereo partly drawn) [Example 14, (1r,4r)-6′-(2-Fluoropropoxy)-4-methoxy-5″-methyl-3′H-dispiro[cyclohexane-1,2′-indene-1′,2″-imidazol]-4″-amine], the IC50 in experiment [3] was 6.7 nM; in experiment [2] (Homo sapiens), 2.5 nM.
Consider `CC1=NC2(N=C1N)c1cc(OCCCF)ccc1C[C@]21CC[C@@H](OC(C)C)CC1` (stereo partly drawn) [Example 17, (1r,4r)-6′-(3-Fluoropropoxy)-5″-methyl-4-(propan-2-yloxy)-3′H-dispiro[cyclohexane-1,2′-indene-1′,2″-imidazol]-4″-amine], for which, in experiment [1], the IC50 worked out at 250 nM.
`CC1=N[C@]2(N=C1N)c1cc(-c3cc(Cl)cc(C#N)c3)ccc1C[C@]21CC[C@@H](O)CC1` (single isomer, unassigned; isomer 1) [15, isomer 1]: the values for the IC50 in experiment [3] (setting [4]) and in experiment [2] were 3.2 nM and 1.6 nM, respectively.
As for `CC1=N[C@@]2(N=C1N)c1cc(OCCCF)ccc1C[C@]21CC[C@@H](OC(F)F)CC1` (single isomer, unassigned; isomer 2) [13, isomer 2], in experiment [1], the IC50 stood at 2900 nM. This counts as single-digit micromolar.
For `CO[C@H]1CC[C@]2(CC1)Cc1ccc(OCC(C)(F)F)cc1C21N=C(C)C(N)=N1` (stereo partly drawn) [Example 3, (1r,4r)-6′-(2,2-Difluoropropoxy)-4-methoxy-5″-methyl-3′H-dispiro[cyclohexane-1,2′-indene-1′,2″-imidazol]-4″-amine], the values for the IC50 in experiment [3] and in experiment [2] (Homo sapiens) were 6.7 nM and 2.4 nM, respectively.
Consider `CO[C@H]1CC[C@]2(CC1)Cc1ccc(OCCC(F)(F)F)cc1C21N=C(C)C(N)=N1` (stereo partly drawn) [Example 10, (1r,4r)-4-Methoxy-5″-methyl-6′-(3,3,3-trifluoropropoxy)-3′H-dispiro[cyclohexane-1,2′-indene-1′,2″-imidazol]-4″-amine], for which, in experiment [2] (Homo sapiens), half-maximal inhibition (IC50) was put at 0.6 nM.
In experiment [1], `CC1=N[C@@]2(N=C1N)c1cc(OCC(C)C)ccc1C[C@]21CC[C@@H](O)CC1` (single isomer, unassigned; isomer 1) [2, isomer 1] registered an IC50 of 13 nM.
Still for that read-out and setting: the same measure for `CC1=NC2(N=C1N)c1cc(Br)ccc1C[C@]21CC[C@@H](OC(C)C)CC1` (stereo partly drawn) [Example 16, (1r,4r)-6′-Bromo-5″-methyl-4-(propan-2-yloxy)-3′H-dispiro[cyclohexane-1,2′-indene-1′,2″-imidazol]-4″-amine]: 3700 nM.
`CC1=N[C@]2(N=C1N)c1cc(OCCCF)ccc1C[C@]21CC[C@@H](OC(F)F)CC1` (single isomer, unassigned; isomer 1) [13, isomer 1]: the IC50 in experiment [3] (setting [4]) was determined as 3 nM; in experiment [2] it was 1.6 nM.
For `CO[C@H]1CC[C@]2(CC1)Cc1ccc(C#CC3CCC3)cc1[C@]21N=C(C)C(N)=N1` (single isomer, unassigned; isomer 1) [7, isomer 1], half-maximal inhibition in experiment [2] (IC50) required 2 nM.
`CO[C@H]1CC[C@]2(CC1)Cc1ccc(C#CC(C)C)cc1C21N=C(C)C(N)=N1` (mixture of isomers) [Example 8, (1r,4r)-4-Methoxy-5″-methyl-6′-(3-methylbut-1-yn-1-yl)-3′H-dispiro[cyclohexane-1,2′-indene-1′,2″-imidazol]-4″-amine] returned an IC50 in experiment [2] (Homo sapiens) of 1.6 nM.
Same read-out and setting: the same measure for `CC[C@@H](C)Oc1ccc2c(c1)C1(N=C(C)C(N)=N1)[C@]1(CC[C@H](OC)CC1)C2` (stereo partly drawn) [Example 18, (1r,4r)-6′-[(28)-Butan-2-yloxy]-4-methoxy-5″-methyl-3′H-dispiro[cyclohexane-1,2′-indene-1′,2″-imidazol]-4″-amine]: 16 nM.
